Assay results from article PMC12952243, “Dual targeting of the mitochondrial Lon peptidase 1 and the chymotrypsin-like proteasome activity as a potential therapeutic strategy in malignant astrocytoma models” (Pharmacological research, 2024).
pIC50: −log10 of the molar value.

target: T1, Mitochondrial Lon Peptidase 1 (LonP1) (Homo sapiens, UniProt P36776); assay: FITC-casein fluorescent protease assay with immunopurified LonP1; assay type: biochemical
T1 construct: LonP1 immunopurified from mitochondria of HOG cells overexpressing LonP1
T1 sequence (P36776 68-959): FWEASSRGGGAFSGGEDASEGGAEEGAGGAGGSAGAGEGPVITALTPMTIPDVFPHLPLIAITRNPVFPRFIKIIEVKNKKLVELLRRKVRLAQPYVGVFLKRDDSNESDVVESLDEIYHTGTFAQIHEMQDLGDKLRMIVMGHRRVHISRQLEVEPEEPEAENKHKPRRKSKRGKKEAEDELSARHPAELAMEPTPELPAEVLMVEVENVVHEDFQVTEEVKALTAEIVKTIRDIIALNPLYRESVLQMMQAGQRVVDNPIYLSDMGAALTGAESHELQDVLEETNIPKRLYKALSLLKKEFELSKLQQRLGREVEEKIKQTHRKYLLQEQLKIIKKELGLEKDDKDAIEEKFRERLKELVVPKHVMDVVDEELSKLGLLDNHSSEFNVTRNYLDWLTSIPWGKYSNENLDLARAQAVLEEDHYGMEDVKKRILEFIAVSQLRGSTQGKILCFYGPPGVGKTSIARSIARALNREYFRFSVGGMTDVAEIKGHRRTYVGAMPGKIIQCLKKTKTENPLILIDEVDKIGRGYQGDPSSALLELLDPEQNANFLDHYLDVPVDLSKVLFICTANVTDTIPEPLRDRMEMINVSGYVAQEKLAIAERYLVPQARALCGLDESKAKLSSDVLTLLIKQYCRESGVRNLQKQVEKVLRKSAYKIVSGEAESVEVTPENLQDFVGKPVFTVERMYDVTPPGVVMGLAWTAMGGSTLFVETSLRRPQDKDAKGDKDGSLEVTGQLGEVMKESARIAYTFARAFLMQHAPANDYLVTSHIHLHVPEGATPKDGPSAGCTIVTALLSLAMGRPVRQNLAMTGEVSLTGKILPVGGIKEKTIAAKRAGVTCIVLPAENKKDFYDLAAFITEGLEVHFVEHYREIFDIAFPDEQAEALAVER

Row | pIC50 | Compound
1 | 4.51 | O=C(Nc1ccc(O)cc1)c1cc2cc(Cl)ccc2oc1=O [BT317]
2 | 4.30 | Cc1cc(NC(C#N)C2=Cc3cc(Cl)cc(Cl)c3OC2c2ccccc2)ccc1B1OC(C)(C)C(C)(C)O1 (stereo not shown) [BT395]
3 | 4.46 | Cc1cc(NC(C#N)C2=Cc3cc(Cl)cc(Cl)c3OC2c2ccccc2)ccc1[B-](F)(F)F (stereo not shown) [BT397]
4 | 3.91 | CC1(C)OB(c2cccc(N(Cc3ccccc3)C(=O)CCl)c2)OC1(C)C [BT399]
